Patent US20260078118A1, “COMBINED PRODUCT, SALT AND USE THEREOF” (SHANGHAI HENLIUS BIOTECH, INC., priority 2023, published 2026)
Structures can show the parent of a compound that is named as a salt.

How the values were obtained:
[1] = tested on: HepG2 cells; assay: Protection of hepatocytes from deoxycholic acid (DCA)-induced cell damage, CCK8 viability; type: cell-based; settings: then 1 mM DCA 4 h; for cell viability: compound N 50 μM for 24 h, vs. DCA-treated group
Protocol: (§1) First, 2.5×10^4 HepG2 cells were seeded in a 96-well flat-bottom plate with an MEM medium containing 10% fetal bovine serum. The cells were cultured overnight in an incubator at 37° C. with 5% CO2 for adhesion. Subsequently, various compounds at corresponding concentrations (compound Y: 100 μM; compound B: 100 μM; compound N: 50 μM) were incubated with the HepG2 cells in the incubator at 37° C. with 5% CO2 for 24 h. All groups, except for the blank control group, were treated with 1 mM deoxycholic acid (DCA, a secondary bile acid that can directly induce hepatocyte damage) for 4 h. All groups were supplemented with 10 μL of CCK8 reagent and incubated under the incubator conditions for 1 h. The absorbance was measured at a wavelength of 450 nm using a microplate reader, which indirectly reflected the number of viable cells. All data were calculated and presented as percentages relative to the absorbance measured in the blank control group not treated with deoxycholic acid.
as §1, with “Y: 50” for “Y: 100 μM; compound B: 100”, “N: 50 µM; compound combination Y+N: 50 μM+50 μM (molar ratio: 1:1); YN salt:” for “N:”, “h. Then, the” for “h. The”
as §1, with “µM;” for “μM; compound B: 100 μM;”, “µM; compound combination Y+N: 100 μM+50 μM (molar ratio: 2:1))” for “μM)”
First, 2.5×10^4 HepG2 cells were seeded in a 96-well flat-bottom plate with an MEM medium containing 10% fetal bovine serum. The cells were cultured overnight in an incubator at 37° C. with 5% CO2 for adhesion. […] The absorbance was measured at a wavelength of 450 nm using a microplate reader, which indirectly reflected the number of viable cells. […]

[2] = tested on: mice subjected to intragastric administration of α-naphthylisothiocyanate (ANIT); assay: ANIT mouse model, serological indicators; type: in vivo, C57BL/6 mice; settings: vs. ANIT model group
Text: In order to verify the technical effects observed in the in vitro cell models, this experiment further examined the effects of compound Y and compound B on serological indicators in a mouse model subjected to intragastric administration of α-naphthylisothiocyanate (ANIT). Fifty-four female C57BL/6 mice aged 6-8 weeks were purchased from Shanghai Lingchang Biotechnology Co., Ltd. After one week of acclimatization, the mice were divided into 6 groups according to body weight, and this time point was designated as day −3. The test compound in each group was intragastrically administered starting from day −3. After three consecutive days of administration, modeling was performed by intragastric administration of ANIT at a dose of 50 mg/kg, and this time point was designated as day 0. During modeling, the healthy group (control) received a single oral dose of pure olive oil. Throughout the entire experimental period, both the healthy group (control) and the model group (ANIT) were given corresponding doses of vehicle (sodium carboxymethylcellulose) according to body weight. The mice were observed daily for health status and body weight changes. The experimental endpoint was day 2; prior to euthanasia, the mice were fasted for 6 h, and cardiac blood collection and liver sample acquisition were performed under anesthesia. The primary indicators were serological changes including AST, ALT, and ALP.
In order to verify the technical effects observed in the DDC model, this experiment further examined the effects of various compound combinations on serological indicators in a mouse model subjected to intragastric administration of α-naphthylisothiocyanate (ANIT). Fifty-six female C57BL/6 mice aged 6-8 weeks were purchased from Shanghai Lingchang Biotechnology Co., Ltd. After one week of acclimatization, the mice were divided into 7 groups according to body weight, and this time point was designated as day −3. The compound in each group was intragastrically administered starting from day −3. After three consecutive days of administration, modeling was performed by intragastric administration of ANIT at a dose of 50 mg/kg, and this time point was designated as day 0. The normal control group received a single oral dose of pure olive oil. Throughout the entire experimental period, both the healthy group (control) and the model group (ANIT) were given corresponding doses of vehicle (sodium carboxymethylcellulose) according to body weight. The mice were observed daily for health status and body weight changes. The experimental endpoint was day 2; prior to euthanasia, the mice were fasted for 6 h, and cardiac blood collection and liver sample acquisition were performed under anesthesia. The primary indicators were serological changes including AST, ALT, and ALP.

[3] = tested on: CD8-positive T cells; assay: Proliferation of CD8-positive T cells from Anti-CD3/CD28-stimulated PBMCs (CellTrace, flow cytometry); type: cell-based, human; settings: FIG. 6; compound Y 200 μM, Y+N 200 μM+100 μM, 72 h; vs. DMSO control
Protocol: (§2) First, a certain amount of human peripheral blood mononuclear cells (PBMCs) were incubated with 5 μM CellTrace cell proliferation assay reagent in an incubator at 37° C. with 5% CO2 in the dark for 20 min. Then, 1.5×10^5 CellTrace-stained PBMCs were seeded in a 96-well U-bottom plate and treated with Anti-CD3/CD28 antibody-coupled magnetic beads at a ratio of 1:1 (cell count:magnetic bead count) to induce differentiation into T cells. Subsequently, various compounds at corresponding concentrations (compound Y: 200 µM; compound N: 100 µM; compound combination Y+N: 200 μM+100 μM; control group: UDCA (100 μM)) were co-incubated with the above-treated cells in the incubator at 37° C. with 5% CO2 for 72 h, followed by analysis by a flow cytometer. Specifically, the test cells were first treated with a Live/dead dye (633 nm, 1:1000 dilution) at 4° C. for 30 min to distinguish dead cells from live cells. Subsequently, the above test cells were simultaneously co-incubated with wavelength dyes anti-CD45-PerCPCy5.5, anti-CD4-AF700, and anti-CD8-FITC at room temperature for 30 min to distinguish different series of T cells (CD4-positive T cells and CD8-positive T cells). After appropriate washing, the above-stained cells were analyzed by a flow cytometer at different wavelengths. […] Proliferation of CD4-positive and CD8-positive T cells was determined by the fluorescence of CellTrace dye.

[4] = tested on: CD4-positive T cells; assay: Proliferation of CD4-positive T cells from Anti-CD3/CD28-stimulated PBMCs (CellTrace, flow cytometry); type: cell-based, human; settings: FIG. 5; compound Y 200 μM, Y+N 200 μM+100 μM, 72 h; vs. DMSO control
Protocol: as §2

[5] = tested on: mice fed with feed containing 0.1% DDC (DDC model); assay: DDC model, serological indicators and liver pathology; type: in vivo, C57BL/6 mice; settings: Example 12, FIG. 17; U 100 mg/kg, combinations 100+100 mg/kg; vs. DDC model group
Text: Seventy-one male C57BL/6 mice aged 10 weeks were purchased from Shanghai Lingchang Biotechnology Co., Ltd. […] The compound in each group was intragastrically administered starting from day 0. Throughout the entire experimental period, both the healthy group (control) and the model group (DDC) were given corresponding doses of vehicle (sodium carboxymethylcellulose) according to body weight. The mice were observed daily for health status and body weight changes. The experimental endpoint was day 20. Prior to euthanasia, the mice were fasted for 6 h, and cardiac blood collection and liver sample acquisition were performed under anesthesia. The primary indicators were serological changes including AST, ALT, and ALP; pathological analysis was performed by HE staining. The specific grouping and the administration dose for each group are shown in the table below: Fifty-six male C57BL/6 mice aged 10 weeks were purchased from Shanghai Lingchang Biotechnology Co., Ltd. […] The compound in each group was intragastrically administered starting from day 0. Throughout the entire experimental period, both the healthy group (control) and the model group (DDC) were given corresponding doses of vehicle (sodium carboxymethylcellulose) according to body weight. The mice were observed daily for health status and body weight changes. The experimental endpoint was day 20. […]

[6] = Example 4, FIG. 1, compound Y 100 μM, compound B 100 μM
[7] = Example 9, FIG. 9, 100 and 50 mg/kg intragastric twice daily

COc1ccc2cc3[n+](cc2c1OC)CCc1cc2c(cc1-3)OCO2 [Compound B, Berberine hydrochloride]
cell viability [1, 6]: highly significant increase in cell viability | serum alkaline phosphatase (ALP) levels ([2]; Example 9, FIG. 7, 100 and 50 mg/kg intragastric twice daily): increased serum ALP levels in a dose-dependent manner | serum ALT levels ([2]; Example 9, FIG. 8, 100 and 50 mg/kg intragastric twice daily): increased serum ALT levels in a dose-dependent manner | serum AST levels [2, 7]: increased serum AST levels in a dose-dependent manner

C[C@H](CC(=O)O)[C@H]1CC[C@H]2[C@@H]3[C@@H](O)C[C@@H]4C[C@H](O)CC[C@]4(C)[C@H]3CC[C@]12C [Compound N, 24-Norursodeoxycholic acid]
cell viability [1, 6]: trend toward improved cell viability, but the trend was not significant | cell viability ([1]; Example 5, FIG. 2): trend toward improved cell viability, but the trend was not significant

COc1cc2cc3[n+](cc2cc1OC)CCc1cc2c(cc1-3)OCO2 [Compound Y]
cell viability [1, 6]: highly significant increase in cell viability | cell viability (percentage relative to blank control) ([1]; Example 5, FIG. 2, compound Y 50 μM, Y+N 50 μM+50 μM (1:1), YN salt 50 μM for 24 h): 72% | serum alkaline phosphatase (ALP) levels ([2]; Example 9, FIG. 7, 50 mg/kg intragastric twice daily, day -3 to day 2): reduced serum ALP levels | serum alkaline phosphatase (ALP) levels ([2]; Example 9, FIG. 7, 100 mg/kg intragastric twice daily, day -3 to day 2): significantly reduced serum alkaline phosphatase (ALP) levels | serum ALT levels ([2]; Example 9, FIG. 8, 50 mg/kg intragastric twice daily): reduced serum ALT levels | serum ALT levels ([2]; Example 9, FIG. 8, 100 mg/kg intragastric twice daily): significantly reduced serum ALT levels | serum AST levels [2, 7]: reduced serum AST levels in a dose-dependent manner | proliferation of CD8-positive T cells [3]: significantly inhibited | proliferation of CD4-positive T cells [4]: significantly inhibited

C[C@H](CCC(=O)O)[C@H]1CC[C@H]2[C@@H]3[C@@H](O)C[C@@H]4C[C@H](O)CC[C@]4(C)[C@H]3CC[C@]12C [U, Ursodeoxycholic acid]
serum alkaline phosphatase (ALP) levels ([2]; Example 10, FIG. 10, U 100 mg/kg intragastric twice daily): reduced serum alkaline phosphatase (ALP) levels | serum ALT levels ([2]; Example 10, FIG. 11, U 100 mg/kg, Y+N 100+50 mg/kg intragastric twice daily): significantly increased serum ALT levels | serum AST levels ([2]; Example 10, FIG. 12, U 100 mg/kg, Y+N 100+50 mg/kg intragastric twice daily): significantly increased serum AST levels | bile pigment-positive area of the liver [5]: significant reduction in the bile pigment-positive area of the liver
